Laboratory results as given in patent US20240425512A1, “NITROGEN-CONTAINING HETEROCYCLIC COMPOUND, PHARMACEUTICAL COMPOSITION THEREOF AND APPLICATION THEREOF” (280 Bio, Inc., priority 2023, published 2024).
Where two headings read alike, the source gives them in different places.

Tests used:
Assay type in all cases: cell-based
[1] = tested on: NCI-H358 human non-small cell lung cancer cell line with KRAS G12C mutation; experiment: Proliferation inhibition on RAS cell lines measured by CTG, NCI-H358; conditions: Table 1, NCI-H358 cells, incubated for 6 days, CellTiter Glo, read-out: IC50 (H358 ^b)
Text: (§1) NCI-H358 is a human non-small cell lung cancer cell line with KRAS G12C mutation; AGS is a gastric cancer cell line with KRAS G12D mutation; SW620 is a colon cancer cell with KRAS G12V mutation; NCI-H460 is a non-small cell lung cancer cell with KRAS Q61H mutation; MKN1 is a wild-type gastric cancer cell with KRAS-amplified; LS513 is a colon cancer cell with KRAS G12D mutation; LoVo is a colon cancer cell with KRAS G13D mutation; NCI-H441 is a lung cancer cell with KRAS G12V mutation, and Capan-2 is a pancreatic cancer cell with KRAS G12V mutation.
(§2) The proliferation inhibitory effect of the compounds on various mutations was evaluated by determining the proliferation inhibitory activity of the compounds on these cell lines.
(§3) The assay was conducted on either 384-well plates or 96-well plates. The procedures are as follows:
(§4) The cell suspensions were added to 384- or 96-well plates (384-well plate: 50 μL; 96-well plate: 100 μL) except for peripheral wells. The plates were placed in a carbon dioxide incubator overnight. NCI-H358, AGS, NCI-H460, MKN-1, LS513, LoVo, and NCI-H441 were placed in a 5%, 370 carbon dioxide incubator overnight, and SW620 was placed in a 0%, 370 carbon dioxide incubator overnight. The HPD300 micro-dosing instrument was used to add the corresponding concentration of compound to each well (9-10 concentration gradients of compound were obtained by 3-fold dilution). Cell plates were incubated in a carbon dioxide incubator for 5-6 days. NCI-H358, AGS, NCI-H460 and MKN-1 were incubated at 5%, 37° incubator and SW620 was incubated at 0%, 370 incubator. On the day of plate measurement, the 384- or 96-well plates were first equilibrated at room temperature for 10-30 min, then CellTiter Glo reagent (384-well plate: 25 μL; 96-well plate: 100 μL) was added to the 384- or 96-well plate, shaken for 10 min away from light, and incubated for 10 min. The plates were placed into Victor NIVO or ENVIDION reader plates, and XLFit was utilized to plot the pharmacodynamic inhibition curve and calculate the IC50 value. “IC50>10 μM” is denoted by “*”, “10 μM≥IC50≥1 μM” is denoted by “**”, and “1 μM≥IC50>100 nM” is denoted by “***”, “IC50<100 nM” is denoted by “****”

[2] = tested on: AGS gastric cancer cell line with KRAS G12D mutation; experiment: Proliferation inhibition on RAS cell lines measured by CTG (CellTiter Glo), AGS; conditions: Table 1, AGS cells, incubated for 5 days
Text: as §1, §2, §3, §4

[3] = tested on: SW620 colon cancer cell with KRAS G12V mutation; experiment: Proliferation inhibition on RAS cell lines measured by CTG, SW620; conditions: Table 1, SW620 cells, incubated for 6 days, CellTiter Glo, read-out: IC50 (SW620 ^c)
Text: as §1, §2, §3, §4

[4] = tested on: MKN1 wild-type gastric cancer cell with KRAS-amplified; experiment: Proliferation inhibition on RAS cell lines measured by CTG, MKN1; conditions: Table 1, MKN1 cells, incubated for 6 days, CellTiter Glo, read-out: IC50 (MKN1 ^e)
Text: as §1, §2, §3, §4

[5] = tested on: NCI-H460 non-small cell lung cancer cell with KRAS Q61H mutation; experiment: Proliferation inhibition on RAS cell lines measured by CTG, NCI-H460; conditions: Table 1, NCI-H460 cells, incubated for 6 days, CellTiter Glo, read-out: IC50 (NCI-H460 ^d)
Text: as §1, §2, §3, §4

[6] = tested on: LS513 colon cancer cell with KRAS G12D mutation; experiment: Proliferation inhibition on RAS cell lines measured by CTG, LS513; conditions: Homo sapiens, LS-513, 144 h, LS513 cells, incubated for 6 days, CellTiter Glo, read-out: IC50 (LS513^f)
Text: as §1, §2, §3, §4

[7] = tested on: LoVo colon cancer cell with KRAS G13D mutation; experiment: Proliferation inhibition on RAS cell lines measured by CTG, LoVo; conditions: Homo sapiens, LoVo, 144 h, Table 1; LoVo cells, incubated for 6 days, CellTiter Glo; read-out: IC50 (LoVo^g)
Text: as §1, §2, §3, §4

[8] = tested on: NCI-H441 lung cancer cell with KRAS G12V mutation; experiment: Proliferation inhibition on RAS cell lines measured by CTG, NCI-H441; conditions: Homo sapiens, NCI-H441 cells, incubated for 6 days, CellTiter Glo
Text: as §1, §2, §3, §4

[9] = tested on: Capan-2 pancreatic cancer cell with KRAS G12V mutation; experiment: Proliferation inhibition on RAS cell lines measured by CTG, Capan-2; conditions: Homo sapiens, 144 h; Table 2; Capan-2 cells, incubated for 6 days, CellTiter Glo; read-out: IC50 (Capan-2^i)
Text: as §1, §2, §3, §4

**Q.** How did the IC50 ([1]; Homo sapiens, 144 h) turn out when CCc1c(F)ccc2cc(O)cc(-c3ncc4c(N5CCCCCN5)nc(OC[C@@]56CCCN5C[C@H](F)C6)nc4c3F)c12 [Compound 3] was run?
**A.** The IC50 was less than 100 nM.

**Q.** What about the IC50 ([2]; Homo sapiens, 120 h) of the same compound?
**A.** The IC50 was less than 100 nM.

**Q.** What about the IC50 ([3]; Homo sapiens, SW-620, 144 h) of the same compound?
**A.** The IC50 was less than 100 nM.

**Q.** And the IC50 ([4]; Homo sapiens, MKN-1, 144 h)?
**A.** Its IC50 is less than 100 nM.

**Q.** What about the IC50 ([5]; Homo sapiens, 144 h) of the same compound?
**A.** The IC50 was 100 to 1000 nM.

**Q.** For C#Cc1c(F)ccc2cc(O)cc(-c3ncc4c(N5CCOCCN5)nc(OC[C@@]56CCCN5C[C@H](F)C6)nc4c3F)c12 [Compound 7], which IC50 [1] is on record?
**A.** Its IC50 is less than 100 nM.

**Q.** What about the IC50 [2] of the same compound?
**A.** The IC50 was less than 100 nM.

**Q.** What about the IC50 [3] of the same compound?
**A.** Its IC50 is less than 100 nM.

**Q.** What about the IC50 [4] of the same compound?
**A.** The IC50 was 100 to 1000 nM.

**Q.** What about the IC50 [5] of the same compound?
**A.** The IC50 was 1000 to 10000 nM.

**Q.** How did the IC50 ([1]; Homo sapiens, 144 h) turn out when CCc1c(F)ccc2cc(O)cc(-c3ncc4c(N5CCOCCN5)nc(OC[C@@]56CCCN5C[C@H](F)C6)nc4c3F)c12 [Compound 8] was run?
**A.** The IC50 was less than 100 nM.

**Q.** What about the IC50 ([2]; Homo sapiens, 120 h) of the same compound?
**A.** Its IC50 is less than 100 nM.

**Q.** What about the IC50 ([3]; Homo sapiens, SW-620, 144 h) of the same compound?
**A.** Its IC50 is less than 100 nM.

**Q.** What about the IC50 ([4]; Homo sapiens, MKN-1, 144 h) of the same compound?
**A.** Its IC50 is less than 100 nM.

**Q.** And the IC50 ([5]; Homo sapiens, 144 h)?
**A.** Its IC50 is 100 to 1000 nM.

**Q.** How did the IC50 ([6]; Table 1) turn out when C#Cc1c(F)ccc2cc(O)cc(-c3ncc4c(N5CCCCCO5)nc(OC[C@@]56CCCN5C[C@H](F)C6)nc4c3F)c12 [Compound 9] was run?
**A.** The IC50 was less than 100 nM.

**Q.** And the IC50 [7]?
**A.** Its IC50 is less than 100 nM.

**Q.** What about the IC50 ([8]; NCI-H441, 144 h, Table 1) of the same compound?
**A.** The IC50 was less than 100 nM.

**Q.** Which IC50 ([6]; Table 1) does the source give for CCc1c(F)ccc2cc(O)cc(-c3ncc4c(N5CCCCCO5)nc(OC[C@@]56CCCN5C[C@H](F)C6)nc4c3F)c12 [Compound 10] here?
**A.** The IC50 was less than 100 nM.

**Q.** And the IC50 [7]?
**A.** The IC50 was 100 to 1000 nM.

**Q.** And the IC50 ([8]; NCI-H441, 144 h, Table 1)?
**A.** Its IC50 is 100 to 1000 nM.

**Q.** With C#Cc1c(F)ccc2cccc(-c3ncc4c(N5CCCCCN5)nc(OC[C@@]56CCCN5C[C@H](F)C6)nc4c3F)c12 [Compound 11] as the compound, how does the IC50 ([6]; Table 1) read?
**A.** Its IC50 is less than 100 nM.

**Q.** And the IC50 [7]?
**A.** Its IC50 is 100 to 1000 nM.

**Q.** And the IC50 ([8]; NCI-H441, 144 h, Table 1)?
**A.** The IC50 was 100 to 1000 nM.

**Q.** C#Cc1c(F)ccc2cc(O)cc(-c3ncc4c(N5CCCCCCN5)nc(OC[C@@]56CCCN5C[C@H](F)C6)nc4c3F)c12 [Compound 15] was tested. Which IC50 ([6]; Table 2) did it give?
**A.** The IC50 was 100 to 1000 nM.

**Q.** What about the IC50 ([8]; NCI-H441, 144 h, Table 2) of the same compound?
**A.** The IC50 was 100 to 1000 nM.

**Q.** Which IC50 ([6]; Table 2) does the source give for C#Cc1c(F)ccc2cc(O)cc(-c3ncc4c(N5CCCCN5C(=O)OC(C)(C)C)nc(OC[C@@]56CCCN5C[C@H](F)C6)nc4c3F)c12 [Compound 17] here?
**A.** Its IC50 is less than 100 nM.

**Q.** And the IC50 ([8]; NCI-H441, 144 h, Table 2)?
**A.** The IC50 was 100 to 1000 nM.

**Q.** With C#Cc1c(F)ccc2cc(O)cc(-c3ncc4c(N5CCCN5)nc(OC[C@@]56CCCN5C[C@H](F)C6)nc4c3F)c12 [Compound 18] as the compound, how does the IC50 ([6]; Table 2) read?
**A.** Its IC50 is 1000 to 10000 nM.

**Q.** And the IC50 ([8]; NCI-H441, 144 h, Table 2)?
**A.** Its IC50 is 1000 to 10000 nM.

**Q.** Which results are given for C#Cc1c(F)ccc2cc(OC(=O)NC)cc(-c3ncc4c(N5CCCCCN5)nc(OC[C@@]56CCCN5C[C@H](F)C6)nc4c3F)c12 [Compound 19]?
**A.** IC50 ([6]; Table 2): < 100 nM; IC50 ([8]; 144 h, Table 2): 1000 to 10000 nM

**Q.** Which IC50 ([6]; Table 2) does the source give for C#Cc1c(F)ccc2cc(OC(=O)C(C)C)cc(-c3ncc4c(N5CCCCCN5)nc(OC[C@@]56CCCN5C[C@H](F)C6)nc4c3F)c12 [Compound 23] here?
**A.** The IC50 was less than 100 nM.

**Q.** What about the IC50 ([8]; NCI-H441, 144 h, Table 2) of the same compound?
**A.** Its IC50 is less than 100 nM.

**Q.** For C#Cc1c(F)ccc2cc(O)cc(-c3ncc4c(N5CCCCCN5)nc(OCC56CCCN5CC(=C)C6)nc4c3F)c12 (stereo not shown) [Compound 24], which IC50 ([6]; Table 2) is on record?
**A.** Its IC50 is less than 100 nM.

**Q.** What about the IC50 ([8]; NCI-H441, 144 h, Table 2) of the same compound?
**A.** The IC50 was 100 to 1000 nM.

**Q.** With C#Cc1c(F)ccc2cc(O)cc(-c3ncc4c(N5CCCCCN5)nc(OCC56CCCN5CCC6)nc4c3F)c12 [Compound 25] as the compound, how does the IC50 [9] read?
**A.** Its IC50 is 100 to 1000 nM.

**Q.** And the IC50 ([6]; Table 2)?
**A.** The IC50 was less than 100 nM.

**Q.** With C#Cc1c(F)ccc2cc(O)cc(-c3ccc4c(N5CCCCCN5)nc(OC[C@@]56CCCN5C[C@H](F)C6)nc4c3)c12 [Compound 26] as the compound, how does the IC50 [9] read?
**A.** The IC50 was 1000 to 10000 nM.

**Q.** What about the IC50 ([6]; Table 2) of the same compound?
**A.** The IC50 was 100 to 1000 nM.
